# Tests used:
# Settings in all cases: no ATP
# IRAK4 = molecular target: T1, IRAK4 (Homo sapiens, UniProt Q9NWZ3); assay: DiscoverX KINOMEscan active site-directed competition binding, IRAK4
# T1 sequence (Q9NWZ3 1-460): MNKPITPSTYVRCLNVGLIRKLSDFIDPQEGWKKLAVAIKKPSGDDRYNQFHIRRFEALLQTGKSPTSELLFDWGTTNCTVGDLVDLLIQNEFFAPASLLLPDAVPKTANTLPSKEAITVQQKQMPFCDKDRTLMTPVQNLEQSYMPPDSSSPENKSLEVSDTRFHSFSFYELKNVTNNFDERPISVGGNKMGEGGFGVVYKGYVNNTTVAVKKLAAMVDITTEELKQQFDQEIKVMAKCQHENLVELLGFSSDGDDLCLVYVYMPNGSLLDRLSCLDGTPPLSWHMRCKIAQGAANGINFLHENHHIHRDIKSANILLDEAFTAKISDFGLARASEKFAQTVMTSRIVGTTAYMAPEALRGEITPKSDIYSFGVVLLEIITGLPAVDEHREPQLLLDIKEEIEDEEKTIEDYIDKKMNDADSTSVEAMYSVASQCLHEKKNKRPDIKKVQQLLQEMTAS
# Excerpt: (§1) Kinase binding data were obtained for various exemplary compounds prepared according to Examples 1-8 using the DiscoverX KINOMEscan® active site-directed competition binding site-directed assay protocol described below. […] As a result, the data report thermodynamic interaction affinities (Kd values), rather than IC50 values that are dependent on ATP concentrations. The assay uses a DNA-tagged version of the protein kinase, and an immobilized ligand bound to a solid support. Compounds that directly or indirectly prevent kinase binding to the immobilized ligand reduce the amount of kinase captured on the solid support, which is detected using an ultra-sensitive qPCR method. Affinity constants reported from the assay have been reported to be independent of the immobilized ligand used that is coupled to the solid support (See supplemental information in Fabian, M. A. et. al., (2005) Nat. Biotechnol. 23, 329-336; Wodicka, L. M. et. al., (2010) Chem. Biol. 17, 1241-1249.)
# (§2) Kinase-tagged T7 phage strains were prepared in an E. coli host derived from the BL21 strain. E. coli were grown to log-phase and infected with T7 phage and incubated with shaking at 32 °C until lysis. The lysates were centrifuged and filtered to remove cell debris. The remaining kinases were produced in HEK-293 cells and subsequently tagged with DNA for qPCR detection. Streptavidin-coated magnetic beads were treated with biotinylated small molecule ligands for 30 minutes at room temperature to generate affinity resins for kinase assays. The liganded beads were blocked with excess biotin and washed with blocking buffer (SeaBlock (Pierce), 1% BSA, 0.05% Tween 20, 1 mM DTT) to remove unbound ligand and to reduce non-specific binding. […] Test compounds were prepared as 111x stocks in 100% DMSO. Kds were determined using an 11-point 3-fold compound dilution series with three DMSO control points. All compounds for Kd measurements are distributed by acoustic transfer (non-contact dispensing) in 100% DMSO. The compounds were then diluted directly into the assays such that the final concentration of DMSO was 0.9%. All reactions were performed in polypropylene 384-well plates. Each was a final volume of 0.02 mL. The assay plates were incubated at room temperature with shaking for 1 hour and the affinity beads were washed with wash buffer (1×PBS, 0.05% Tween 20). The beads were then re-suspended in elution buffer (1×PBS, 0.05% Tween 20, 0.5 μM nonbiotinylated affinity ligand) and incubated at room temperature with shaking for 30 minutes. The kinase concentration in the eluates was measured by qPCR. Binding constants (Kds) were calculated with a standard dose-response curve using the Hill equation. The Hill Slope was set to −1. Curves were fitted using a non-linear least square fit with the Levenberg-Marquardt algorithm.
# as §1, with “9-12” for “1-8”
# (§3) Kinase-tagged T7 phage strains were prepared in an E. coli host derived from the BL21 strain. […]
# FLT3 ITD, D835V = molecular target: T2, FLT3 ITD, D835V (Homo sapiens, UniProt P36888, D835V/ITD); assay: DiscoverX KINOMEscan active site-directed competition binding, FLT3 ITD, D835V
# T2 sequence (P36888 27-993 D835V): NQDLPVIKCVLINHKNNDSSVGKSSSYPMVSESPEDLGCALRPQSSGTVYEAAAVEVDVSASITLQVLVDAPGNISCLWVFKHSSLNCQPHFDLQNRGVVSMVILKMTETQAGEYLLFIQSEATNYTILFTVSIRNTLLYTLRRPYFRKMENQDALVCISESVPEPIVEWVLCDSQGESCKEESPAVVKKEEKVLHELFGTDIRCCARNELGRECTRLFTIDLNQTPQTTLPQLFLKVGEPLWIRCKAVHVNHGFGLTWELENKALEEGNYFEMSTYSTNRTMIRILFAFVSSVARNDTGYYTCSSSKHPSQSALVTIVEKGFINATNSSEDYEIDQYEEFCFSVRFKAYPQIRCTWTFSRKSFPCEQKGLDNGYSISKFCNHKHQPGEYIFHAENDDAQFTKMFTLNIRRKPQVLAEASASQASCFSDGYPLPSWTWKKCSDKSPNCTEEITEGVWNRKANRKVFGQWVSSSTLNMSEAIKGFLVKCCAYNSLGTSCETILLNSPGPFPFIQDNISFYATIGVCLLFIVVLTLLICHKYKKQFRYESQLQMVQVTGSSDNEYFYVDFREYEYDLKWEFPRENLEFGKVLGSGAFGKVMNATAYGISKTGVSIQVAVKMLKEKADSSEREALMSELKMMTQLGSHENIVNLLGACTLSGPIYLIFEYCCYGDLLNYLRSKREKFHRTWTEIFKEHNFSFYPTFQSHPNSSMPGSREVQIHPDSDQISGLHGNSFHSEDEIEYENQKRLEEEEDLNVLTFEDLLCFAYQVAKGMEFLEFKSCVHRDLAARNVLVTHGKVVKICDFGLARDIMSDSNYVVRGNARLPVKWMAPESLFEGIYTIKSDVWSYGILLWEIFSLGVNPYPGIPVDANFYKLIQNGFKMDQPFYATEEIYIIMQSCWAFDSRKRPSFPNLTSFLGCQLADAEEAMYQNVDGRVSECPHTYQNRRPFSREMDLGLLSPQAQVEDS
# Excerpt: as §1, §2
# as §1, with “9-12” for “1-8”
# as §3
# FLT3 Autoinh. = molecular target: T3, FLT3 Autoinh. (Homo sapiens, UniProt P36888); assay: DiscoverX KINOMEscan active site-directed competition binding, FLT3 Autoinh.
# T3 sequence (P36888 27-993): T2 sequence (P36888 27-993 D835V)
# Excerpt: as §1, §2
# as §1, with “9-12” for “1-8”
# as §3
Kd (IRAK4; Table 12) [nM],"Kd (FLT3 ITD, D835V; Table 13) [nM]",Kd (FLT3 Autoinh.; Table 13) [nM],Kd (IRAK4; Table 18) [nM],"Kd (FLT3 ITD, D835V; Table 19) [nM]",Kd (FLT3 Autoinh.; Table 19) [nM],SMILES
–,–,–,< 0.17,< 0.17,1.6,"COc1cn2ncc(-c3nc(N[C@@H]4CCCNC4)ncc3F)c2nc1C1CC1 [Compound 14a, (R)-4-(5-cyclopropyl-6-methoxypyrazolo[1,5-a]pyrimidin-3-yl)-5-fluoro-N-(piperidin-3-yl)pyrimidin-2-amine]"
–,–,–,< 0.17,< 0.17,1.4,"COc1cn2ncc(-c3nc(N[C@H]4CNCC[C@@H]4F)ncc3F)c2nc1C1CC1 [Compound 15a, 4-(5-cyclopropyl-6-methoxypyrazolo[1,5-a]pyrimidin-3-yl)-5-fluoro-N-((3S,4S)-4-fluoropiperidin-3-yl)pyrimidin-2-amine]"
–,–,–,0.2,< 0.17,4.8,"COc1cn2ncc(-c3nc(N[C@H]4CNCC[C@@H]4F)ncc3F)c2nc1C(C)(C)O [Compound 6a, 2-(3-(5-fluoro-2-(((3S,4S)-4-fluoropiperidin-3-yl)amino)pyrimidin-4-yl)-6-methoxypyrazolo[1,5-a]pyrimidin-5-yl)propan-2-ol]"

# Second part, the compound before the results:
SMILES,Kd (IRAK4; Table 12) [nM],"Kd (FLT3 ITD, D835V; Table 13) [nM]",Kd (FLT3 Autoinh.; Table 13) [nM],Kd (IRAK4; Table 18) [nM],"Kd (FLT3 ITD, D835V; Table 19) [nM]",Kd (FLT3 Autoinh.; Table 19) [nM]
"COc1cn2ncc(-c3nc(N[C@H]4CNCC[C@@H]4F)c(F)cc3F)c2nc1C(C)(C)O [Compound 13, 2-(3-(3,5-difluoro-6-(((3S,4S)-4-fluoropiperidin-3-yl)amino)pyridin-2-yl)-6-methoxypyrazolo[1,5-a]pyrimidin-5-yl)propan-2-ol]",< 0.17,< 0.17,3.7,–,–,–
"COc1cn2ncc(-c3nc(N[C@H]4CNCC[C@@H]4F)c(C#N)cc3F)c2nc1C(C)(C)O [Compound 10, 5-fluoro-2-(((3S,4S)-4-fluoropiperidin-3-yl)amino)-6-(5-(2-hydroxypropan-2-yl)-6-methoxypyrazolo[1,5-a]pyrimidin-3-yl)nicotinonitrile]",< 0.17,< 0.17,5.4,–,–,–
"COc1cn2ncc(-c3nc(N[C@H]4CNCC[C@@H]4F)c(C#N)cc3F)c2nc1C1CC1 [Compound 7, 6-(5-cyclopropyl-6-methoxypyrazolo[1,5-a]pyrimidin-3-yl)-5-fluoro-2-(((3S,4S)-4-fluoropiperidin-3-yl)amino)nicotinonitrile]",< 0.17,< 0.17,0.68,–,–,–
"COc1cn2ncc(-c3cncc(N[C@H]4CNCC[C@@H]4F)n3)c2nc1C1CC1 [Compound 12a, 6-(5-cyclopropyl-6-methoxypyrazolo[1,5-a]pyrimidin-3-yl)-N-((3S,4S)-4-fluoropiperidin-3-yl)pyrazin-2-amine]",–,–,–,< 0.17,< 0.17,4.6
"COc1cn2ncc(-c3ccnc(N[C@H]4CNCC[C@@H]4F)n3)c2nc1C1CC1 [Compound 7a, 4-(5-cyclopropyl-6-methoxypyrazolo[1,5-a]pyrimidin-3-yl)-N-((3S,4S)-4-fluoropiperidin-3-yl)pyrimidin-2-amine]",–,–,–,0.36,< 0.17,12

# Source: patent US20260374773A1, “MULTI-CYCLIC IRAK AND FLT3 INHIBITING COMPOUNDS AND USES THEREOF” (CHILDREN'S HOSPITAL MEDICAL CENTER, priority 2022, published 2026)
